According to patent US20100227841A1, “Patient populations and treatment methods” (Harbor BioSciencs, Inc., priority 2008, published 2010):

Test system: toll-like receptor 4 (TLR4) signaling
Assay: LPS-induced proinflammatory signaling in macrophages (Western blot, qNPA array)
Format: cell-based, mouse
Procedure: Methods. LPS and recombinant TNFα were obtained from Sigma. Anti-SREBP2 was obtained from Abcam (Cambridge, Mass.). Other primary antibodies were purchased from Cell Signaling Technology (Danvers, Mass.) unless otherwise indicated. Murine primary macrophages were elicited by intraperitoneal injection of thioglycollate (3 mL/mouse) in C57BL/6J mice. Macrophages were obtained from intraperitoneal lavage and washed twice. Cells were cultured in RPMI supplemented with 10% fetal bovine serum (FBS) for 3 days and then starved in RPMI supplemented with 0.5% FBS for overnight before the treatment. RAW 264.7 cells and 3T3-L1 cells were cultured essentially as described elsewhere (T. Yoshizaki, et al. Molecular and Cellular Biology, 29:1363-1374, 2009).
Gene expression analyses used total RNA extracted from tissue with Purelink total RNA purification system (Invitrogen) following the manufacturer's protocol. Total RNA (2 μg) was reverse-transcribed using iScript cDNA Synthesis Kit (Bio-Rad Laboratories, Hercules, Calif.). Primer sequences used in the PCR reactions were chosen based on the sequences available in GenBank. Primer sequences are available upon request. PCR was carried out using iTaq SYBR Green supermix (Bio-Rad Laboratories, Hercules, Calif.) on an MJ Research Chromo4 Real Time PCR system (Bio-Rad Laboratories BV, Hercules, Calif.). […] For Quantitative Nuclease Protection Assay (qNPA), cells were lysed in lysis buffer after various treatments. The qNPA ArrayPlate assays were performed by High Throughput Genomics, Inc.
For Western blots, cells were serum starved and pretreated with DMSO or 17α-ethynylandrost-5-ene-3β,7β,17β-triol (100 nM) for overnight before LPS (100 ng/ml) or TNFα (10 ng/ml) stimulation for the indicated times, and then were lysed in radioimmunoprecipitation buffer containing protease inhibitor cocktail (Roche) and phosphatase inhibitor cocktail (Sigma). Total cell lysates were separated by 10% SDS-PAGE. The blots were incubated first with blocking buffer (Tris-buffered saline containing 0.05% Tween 20 and 5.5% nonfat milk) followed by primary antibodies in blocking buffer or Tris-buffered saline containing 2% BSA. The bound antibodies were detected by horseradish peroxidase-conjugated secondary antibodies (1:4000, v/v) in blocking buffer and visualized by enhanced chemiluminescence.

[1] = pretreatment 100 nM overnight, LPS 100 ng/ml, p<0.05

`C#C[C@]1(O)CC[C@H]2[C@@H]3[C@@H](O)C=C4C[C@@H](O)CC[C@]4(C)[C@H]3CC[C@@]21C` [17α-ethynylandrost-5-ene-3β,7β,17β-triol] was tested, and the “LPS-induced activation of ERK” value [1] was “partially, but significantly, blocked”, the “LPS-induced activation of IKK” value [1] was “partially, but significantly, blocked” and the “LPS-induced activation of JNK” value [1] was “partially, but significantly, blocked”. The “LPS-induced activation of p38” value [1] was “partially, but significantly, blocked”, the “IκB phosphorylation and degradation” value (pretreatment 100 nM, LPS) was “not influenced” and the NFκB phosphorylation (pretreatment 100 nM, LPS) was “reduced”. The “LPS-induced transcription of Cxcl1” value (qNPA array) was “significantly reduced”, the “LPS-induced transcription of Cxcl10” value (qNPA array) was “significantly reduced” and the “LPS-induced transcription of IL-1β” value (qNPA array) was “significantly reduced”. For the same compound, the “LPS-induced transcription of IL-6” value (qNPA array) was “significantly reduced”, the “LPS-induced transcription of IL-12” value (qNPA array) was “significantly reduced” and the “LPS-induced transcription of Nos2” value (qNPA array) was “significantly reduced”. The “LPS-induced transcription of TNFα” value (qNPA array) was “significantly reduced”.
